{"source": "patent US20220125803A1", "about": "“METHODS FOR THE TREATMENT OF PERIMENOPAUSE AND MENOPAUSE” (Praxis Precision Medicines, Inc., priority 2019, published 2022)", "key": {"[1]": {"system": "women that are perimenopausal with depression", "test": "Open label trial, Perimenopausal Depression Questionnaire (Meno-D)", "type": "in vivo, human", "conditions": "one patient, 60 mg once a day", "description": "The Meno-D is a perimenopausal depression rating scale consisting of 12 items, each items is scored on a 5-point scale (ranging from 0 to 4) (Kulkami J, et al., Development and validation of a new rating scale for perimenopausal depression-the Meno-D. Transl Psychiatry. 2018 Jun. 28; 8(1):123). The total score of the 12 items ranges from […] with higher scores indicating more severe perimenopausal depression. The MENO-D has five factors (or domains): Self (four items), Sexual (two items), Somatic (two items), Cognitive (two items) and Sleep (two items). MENO-D assesses the patient's self-esteem, sense of isolation, paranoid thinking, anxiety, interest in socialising, changes in libido and sexual activity, any decrease in energy, physical pain, changes in weight, subjective changes in memory and concentration, and increases in irritability and/or sleep disturbances.\n(§1) The study is a two-week open label trial in women that are perimenopausal with depression during which patients were treated with an oral formulation of Compound 1 in adjunct to standard antidepressant treatment.\n(§2) Treatment Period: The treatment period was 14 days in duration. Participants were administered daily doses of Compound 1 (up to 120 mg qPM, including 15 mg once a day, 20 mg once a day, 25 mg once a day, 30 mg once a day, 35 mg once a day, 40 mg once a day, 45 mg once a day, 50 mg once a day, 55 mg once a day, 60 mg once a day, 65 mg once a day, 70 mg once a day, 75 mg once a day, 80 mg once a day, 85 mg once a day, 90 mg once a day, 95 mg once a day, 100 mg once a day, 105 mg once a day, 110 mg once a day, 115 mg once a day and 120 mg once a day) for 14 days.\n(§3) Secondary outcome measure was by the Clinical Global Impression (CGI), DSM-V MDD Anxious Distress Specifier, the Hamilton Anxiety Rating Scale (HAM-A), the Montgomery-Asberg Depression Rating Scale (MADRS), the Perimenopausal Depression Questionnaire (Meno-D), the Pittsburgh Sleep Quality Index (PSQI), the revised Sabbastberg Sexual Function Scale, the Symptoms of Depression Questionnaire (SDQ), and a vasomotor symptom diary."}, "[2]": {"system": "women that are perimenopausal with depression", "test": "Open label trial, Hamilton Depression Rating Scale (HAM-D)", "type": "in vivo, human", "conditions": "one patient", "method": "as §1\nas §2, with “Treatment Period: The treatment period was 14 days in duration.” left out\nThe Primary efficacy outcome was measured by the Hamilton Depression Rating Scale (HAM-D). The HAM-D was administered at baseline (Day 1, predose), Day 4, Day 8, Day 15, Day 21 and Day 28.\nHAM-D Response was defined as a reduction from baseline of >50% in total HAM-D score. HAM-D remission was defined as a total HAM-D score of <7."}, "[3]": {"system": "women that are perimenopausal with depression", "test": "Open label trial, vasomotor symptom diary (hot flushes)", "type": "in vivo, human", "conditions": "one patient, 60 mg once a day, by Day 4 (baseline 9 per day)", "method": "as §1, §2, §3"}, "[4]": {"test": "Multiple escalating dose study, plasma pharmacokinetics, Cohorts 1-3", "type": "in vivo, human", "procedure": "Healthy subjects aged 18 to 55 years were treated with an oral suspension of Compound 1 to study the safety, tolerability, pharmacokinetics and pharmacodynamics of Compound 1 in healthy subjects.\nThe study was a randomized, double-blind, placebo-controlled multiple escalating dose study comprised of 3 cohorts that each received an oral suspension. Each cohort consisted of two groups: one group treated with Compound 1 and another treated with placebo. In each cohort, the ratio of Compound 1-treated subjects to placebo-treated subjects was 3:1.\nThe Compound 1-treated subjects of Cohort 1 were treated with 15.0 mg of Compound 1 once per day (QD). The Compound 1-treated subjects of Cohort 2 were treated with 30.0 mg of Compound 1 QD. The Compound 1-treated subjects of Cohort 3 were treated with 60.0 mg of Compound 1 QD.\nPatients in each cohort were treated with Compound 1 for 14 consecutive days, unless dosing was halted by the Safety Review Committee (SRC). The dosing of subjects in each of the cohorts was staggered with the decision to dose escalate based on SRC review of a minimum of 14 days of observation of safety and tolerability data and review of the available plasma PK data from the preceding cohort(s). Thus, dose escalation was predicated on tolerability of the prior cohorts.\nCompound 1 was administered under fasted conditions (no food or drink, except water, for at least 10 hours prior to dosing). Immediately after administration of Compound 1, the subject was be administered 240 mL water. No additional fluid intake was allowed until 1 hour after Compound 1 administration.\nCohort 1 subjects received a single 15.0 mg dose of a Compound 1 suspension on the morning of Days 1-14. Cohort 2 subjects received a single 30.0 mg dose of a Compound 1 suspension on the morning of Days 1-14. Cohort 3 subjects received a single 60.0 mg dose of a Compound 1 suspension on the morning of Days 1-14. For all cohorts, the last treatment was administered on the morning of Day 14.\nPlasma samples were analyzed to determine Compound 1 concentrations using a validated assay method. Pharmacokinetic variables (including but not limited to Cmax, Tmax and AUC(0-last)) were calculated using non-compartmental analysis. PK parameters for Compound 1 were derived from the plasma concentration data using non-compartmental analysis with Phoenix™ WinNonlin® v 8.0 (Pharsight Corporation, USA).\nBlood (Cohorts 1-3): For each cohort, blood samples were collected on Days 1, 2, 3, 4, 5, 6 and 14 at the following time points: Day 1 at pre-dose (0 hour), 0.25, 0.5, 0.75, 1, 1.5, 2, 2.5, 3, 4, 6, 8, 12, 16 h post-dose; Day 2 at pre-dose (24 h), Day 3 at pre-dose (48 h), Day 4 at pre-dose (72 h), Day 5 at pre-dose (96 h), Day 6 at pre-dose (120 h); Day 14 at pre-dose 0.25, 0.5, 0.75, 1, 1.5, 2, 2.5, 3, 4, 6, 8, 12, 16, 24, 36, 48, and 72 hours. Trough level blood samples were collected on Days 2, 3, 4, 5, 6 and 14, prior to the morning dose administrations.\nDescriptive statistics were calculated for plasma and urine PK parameter and concentration data, and summarized by study day and time point. Arithmetic means, coefficient of variation (CV), standard deviation, median, minimum, and maximum values, and number of observations were calculated for all PK parameters and trough concentration data. Except for Tmax, the geometric mean, geometric standard deviation, and geometric CV were provided for all PK parameter and concentration data. […]"}, "[5]": {"system": "women that are perimenopausal with depression", "test": "Open label trial, safety/tolerability", "type": "in vivo, human", "conditions": "one patient, 60 mg dose once a day for 14 days", "method": "During the study, physical examination, vital signs, ECG, and clinical laboratory tests were conducted. The Modified Observers Assessment of Anesthesia and Sedation, (MOASS) and the Columbia Suicide were performed."}, "[6]": {"test": "Food Effect Cohort (Cohort 4), plasma pharmacokinetics fasted vs fed", "conditions": "Cohort 4, single 30 mg", "procedure": "(§4) The Day 1 dose was administered after a minimum of 10 hour fasting. No additional fluid intake was allowed until 1 hour after drug administration. A standard meal was given at least 4 hours post-dose. The Day 5 dose was administered following a high-fat, high calorie meal. Participants remained at the clinical site for a total of 8 days to complete PK sampling after the second dose.\n(§5) Pharmacokinetic variables (including but not limited to Cmax, Tmax and AUC(0-last)) were calculated using non-compartmental analysis."}, "[7]": {"conditions": "human, in vivo, 30 mg", "procedure": "as §4, §5"}}}
{"smiles": "COC[C@@]1(O)CC[C@@]2(C)[C@@H](CC[C@@H]3[C@@H]2CC[C@]2(C)[C@@H](C(=O)Cn4ccnc4)CC[C@@H]32)C1", "note": "[Compound 1, 3α-Hydroxy-3β-methoxymethyl-21-(1′-imidazolyl)-5α-pregnan-20-one]", "values": [{"measurement": "improvement in MENO-D from baseline value", "setting": "[1]; Day 8 (baseline 28)", "value": 54, "unit": "%"}, {"measurement": "MENO-D classification", "setting": "[1]; Day 8 and Day 15", "value": "no longer met classification for perimenopausal depression requiring clinical attention"}, {"measurement": "improvement in MENO-D factor Cognitive", "setting": "[1]; Day 15", "value": 100, "unit": "%"}, {"measurement": "improvement in MENO-D factor Self", "setting": "[1]; Day 15", "value": 63, "unit": "%"}, {"measurement": "improvement in MENO-D factor Sexual", "setting": "[1]; Day 15", "value": 43, "unit": "%"}, {"measurement": "improvement in MENO-D factor Sleep", "setting": "[1]; Day 15", "value": 40, "unit": "%"}, {"measurement": "improvement in MENO-D factor Somatic", "setting": "[1]; Day 15", "value": 50, "unit": "%"}, {"measurement": "improvement in MENO-D from baseline value", "setting": "[1]; Day 15 (baseline 28)", "value": 57, "unit": "%"}, {"measurement": "HAM-D score", "setting": "[2]; 60 mg once a day for 14 days, Day 15 (baseline 28)", "value": 8}, {"measurement": "improvement in HAM-D score", "setting": "[2]; 60 mg once a day for 14 days, adjunct to fluoxetine, Day 8", "value": 48, "unit": "%"}, {"measurement": "improvement in HAM-D score from baseline value", "setting": "[2]; 60 mg once a day for 14 days, adjunct to fluoxetine, Day 15", "value": 71, "unit": "%"}, {"measurement": "HAM-D Remission criterion (total HAM-D score of <7)", "setting": "[2]; 60 mg once a day, Day 15", "value": "nearly met the HAM-D Remission criterion"}, {"measurement": "HAM-D Response criterion (reduction from baseline of >50%)", "setting": "[2]; 60 mg once a day, Day 15", "value": "met the HAM-D Response criterion"}, {"measurement": "decrease in frequency of hot flushes", "setting": "[3]", "value": 66, "unit": "%"}, {"measurement": "accumulation factor of the dosing interval (ratio of AUCDay14/AUCDay1)", "setting": "[4]; Cohort 1, 15.0 mg QD", "value": "approximately 1.25"}, {"measurement": "AUCinf", "setting": "[4]; Cohort 1, 15.0 mg QD, Day 14 steady state, Geo Mean", "value": 600.228, "unit": "ng·h/mL"}, {"measurement": "accumulation factor of the dosing interval (ratio of AUCDay14/AUCDay1)", "setting": "[4]; Cohort 2, 30.0 mg QD", "value": "approximately 1.25"}, {"measurement": "AUC0-tau", "setting": "[4]; human, in vivo, 15 mg", "value": 361.762, "unit": "ng·h/mL"}, {"measurement": "Cmax", "setting": "[4]; human, in vivo, 15 mg", "value": 56.016, "unit": "ng/mL"}, {"measurement": "adverse event reported", "setting": "[5]", "value": "mild epigastric pain after dosing"}, {"measurement": "tolerability", "setting": "[5]", "value": "well-tolerated"}, {"measurement": "t1/2, fasted versus fed", "setting": "[6]", "value": "similar"}, {"measurement": "Tmax, fasting compared to fed conditions", "setting": "[7]", "value": "tendency for a shorter Tmax"}]}
{"smiles": "CNCCC(Oc1ccc(C(F)(F)F)cc1)c1ccccc1", "note": "(stereo not drawn) [fluoxetine, reference compound]", "values": [{"measurement": "clinical response of depression symptoms (HAM-D score and clinical evaluation)", "setting": "[2]; 15 mg daily taken for 8 months, before Compound 1", "value": "had not demonstrated a sufficient clinical response"}]}
